# Laboratory results published in US10266549B2, “ULK1 inhibitors and methods using same” (SALK INSTITUTE FOR BIOLOGICAL STUDIES, priority 2014, dated 2019).
# Target: ULK1 (Homo sapiens (Human), UniProt O75385)
# Assay: ULK1 inhibition assay (Table 1)
# Assay type: biochemical
# Settings: * = tested as a mixture of regioisomers
# ULK1, sequence (O75385 whole entry, species assumed): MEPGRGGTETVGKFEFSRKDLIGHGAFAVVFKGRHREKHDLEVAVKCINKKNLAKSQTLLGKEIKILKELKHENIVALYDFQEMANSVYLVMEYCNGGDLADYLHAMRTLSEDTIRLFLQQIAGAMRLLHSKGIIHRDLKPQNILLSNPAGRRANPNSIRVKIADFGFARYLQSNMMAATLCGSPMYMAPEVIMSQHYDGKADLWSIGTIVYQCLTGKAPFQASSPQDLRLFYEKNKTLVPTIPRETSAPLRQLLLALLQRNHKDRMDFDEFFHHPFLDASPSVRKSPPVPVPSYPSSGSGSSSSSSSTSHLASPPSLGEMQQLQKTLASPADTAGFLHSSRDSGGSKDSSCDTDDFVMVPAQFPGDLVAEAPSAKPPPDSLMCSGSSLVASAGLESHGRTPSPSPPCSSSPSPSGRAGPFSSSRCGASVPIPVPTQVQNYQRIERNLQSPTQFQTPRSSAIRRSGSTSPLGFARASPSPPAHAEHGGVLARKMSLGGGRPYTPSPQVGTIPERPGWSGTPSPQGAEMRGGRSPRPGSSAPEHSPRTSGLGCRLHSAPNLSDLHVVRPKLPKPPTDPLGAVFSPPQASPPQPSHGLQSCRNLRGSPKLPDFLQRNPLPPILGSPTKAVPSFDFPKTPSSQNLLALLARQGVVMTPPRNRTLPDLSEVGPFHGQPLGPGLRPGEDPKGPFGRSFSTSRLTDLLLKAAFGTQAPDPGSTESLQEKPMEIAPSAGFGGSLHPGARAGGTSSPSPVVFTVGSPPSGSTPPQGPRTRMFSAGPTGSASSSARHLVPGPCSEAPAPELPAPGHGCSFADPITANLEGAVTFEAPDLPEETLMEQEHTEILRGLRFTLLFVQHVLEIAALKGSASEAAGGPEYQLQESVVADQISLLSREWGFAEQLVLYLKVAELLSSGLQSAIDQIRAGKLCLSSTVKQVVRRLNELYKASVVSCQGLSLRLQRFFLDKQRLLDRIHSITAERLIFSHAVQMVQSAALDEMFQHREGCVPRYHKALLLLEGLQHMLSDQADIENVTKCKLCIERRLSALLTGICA
row,Structure (SMILES),IC50 [nM]
1,"COc1cc(N2CCOCC2)ccc1Nc1ncc(C(F)(F)F)c(Nc2ccc3c(c2)CCC(=O)N3)n1 [123b, 6-((2-((2-methoxy-4-morpholinophenyl)amino)-5-(trifluoromethyl)pyrimidin-4-yl)amino)-3,4-dihydroquinolin-2(1H)-one]",< 200
2,"FC(F)(F)c1cnc(Nc2ccc3c(c2)OCO3)nc1Nc1ccc2c(c1)OCO2 [124c, N^2,N^4-bis(benzo[d][1,3]dioxol-5-yl)-5-(trifluoromethyl)pyrimidine-2,4-diamine]",< 200
3,"O=C1CCc2cc(Nc3ncc(C(F)(F)F)c(Nc4cccc5ccccc45)n3)ccc2N1 [126a, 6-((4-(naphthalen-1-ylamino)-5-(trifluoromethyl)pyrimidin-2-yl)amino)-3,4-dihydroquinolin-2(1H)-one]",200 to 2000
4,"FC(F)(F)c1cnc(Nc2cccc3ccccc23)nc1Nc1cccc2ccccc12 [126b, N^2,N^4-di(naphthalen-1-yl)-5-(trifluoromethyl) pyrimidine-2,4-diamine]",200 to 2000
5,"O=C1CCc2cc(Nc3ncc(C(F)(F)F)c(NC4Cc5ccccc5C4)n3)ccc2N1 [130a, 6-((4-((2,3-dihydro-1H-inden-2-yl)amino)-5-(trifluoromethyl)pyrimidin-2-yl)amino)-3,4-dihydroquinolin-2(1H)-one]",< 200
6,"O=C1CCc2cc(Nc3nc(NC4Cc5ccccc5C4)ncc3C(F)(F)F)ccc2N1 [130b, 6-((2-((2,3-dihydro-1H-inden-2-yl)amino)-5-(trifluoromethyl)pyrimidin-4-yl)amino)-3,4-dihydroquinolin-2(1H)-one]",> 2000
7,"O=C1CCc2cc(Nc3ncc(C(F)(F)F)c(NC4CC4)n3)ccc2N1 [131a, 6-((4-(cyclopropylamino)-5-(trifluoromethyl)pyrimidin-2-yl)amino)-3,4-dihydroquinolin-2(1H)-one]",< 200
8,"O=C1CCc2cc(Nc3nc(NC4CC4)ncc3C(F)(F)F)ccc2N1 [131b, 6-((2-(cyclopropylamino)-5-(trifluoromethyl)pyrimidin-4-yl)amino)-3,4-dihydroquinolin-2(1H)-one]",< 200
9,"Fc1c(Nc2ncc(C(F)(F)F)c(Nc3ccc4c(c3)OCO4)n2)cccc1C(F)(F)F [141a, N^4-(benzo[d][1,3]dioxol-5-yl)-N^2-(2-fluoro-3-(trifluoromethyl)phenyl)-5-(trifluoromethyl)pyrimidine-2,4-diamine]",> 2000
10,"Fc1c(Nc2nc(Nc3ccc4c(c3)OCO4)ncc2C(F)(F)F)cccc1C(F)(F)F [141b, N^2-(benzo[d][1,3]dioxol-5-yl)-N^4-(2-fluoro-3-(trifluoromethyl)phenyl)-5-(trifluoromethyl)pyrimidine-2,4-diamine]",< 200
11,"COc1cccc(Nc2nc(Nc3ccc4c(c3)CCC(=O)N4)ncc2Cl)c1 [143a, 6-((5-chloro-4-((3-methoxyphenyl)amino)pyrimidin-2-yl)amino)-3,4-dihydroquinolin-2(1H)-one]",< 200
12,"COc1cccc(Nc2ncc(Cl)c(Nc3cccc(OC)c3)n2)c1 [143b, 5-chloro-N^2,N^4-bis(3-methoxyphenyl) pyrimidine-2,4-diamine]",< 200
13,"O=C1CCc2cc(Nc3ncc(C(F)(F)F)c(NC4CCC4)n3)ccc2N1 [150a, 6-((4-(cyclobutylamino)-5-(trifluoromethyl)pyrimidin-2-yl)amino)-3,4-dihydroquinolin-2(1H)-one]",< 200
14,"O=C1CCc2cc(Nc3nc(NC4CCC4)ncc3C(F)(F)F)ccc2N1 [150b, 6-((2-(cyclobutylamino)-5-(trifluoromethyl)pyrimidin-4-yl)amino)-3,4-dihydroquinolin-2(1H)-one]",< 200
15,"COCCNc1nc(Nc2ccc3c(c2)CCC(=O)N3)ncc1C(F)(F)F [151a, 6-((4-((2-methoxyethyl)amino)-5-(trifluoromethyl)pyrimidin-2-yl)amino)-3,4-dihydroquinolin-2(1H)-one]",< 200
16,"COCCNc1ncc(C(F)(F)F)c(Nc2ccc3c(c2)CCC(=O)N3)n1 [151b, 6-((2-((2-methoxyethyl)amino)-5-(trifluoromethyl)pyrimidin-4-yl)amino)-3,4-dihydroquinolin-2(1H)-one]",< 200
